Test results as given in ChEMBL document CHEMBL1201862, “PubChem BioAssay data set” (2004).
Calls of active or inactive are those of the source.

Experiments:
[1] = target: Peroxisome proliferator-activated receptor gamma/Nuclear receptor coactivator 3 (Homo sapiens, UniProt P37231); test: (§1) TR-FRET dose response biochemical High Throughput Screening assay for agonists of the steroid receptor coactivator 3 (SRC-3) recruitment by the peroxisome proliferator-activated receptor gamma (PPAR gamma): non-selective agonists. [Related pubchem assays: 1301 (Confirmation screen.), 1048 (Primary screen.)]; type: functional
[2] = C. albicans growth with fluconazole, confirmation, fluorescence, retest (AID 2467); type: functional, cell-based
[3] = NIH-3T3 fibroblast cytotoxicity, dose response, cytotoxicity control, cell-based, fluorescence, Alamar Blue, secondary assay (AID 2327); type: functional;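 further: NIH-3T3 mouse fibroblasts cultured with fluconazole at 8 µg/mL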
[4] = target: Peroxisome proliferator-activated receptor gamma/Nuclear receptor coactivator 1 (Homo sapiens, UniProt P37231); test: as §1, with “1 (SRC-1)” for “3 (SRC-3)”, “assays (depositor defined):AID1300, AID1808, AID504735, AID631]” for “assays: 1301 (Confirmation screen.), 1048 (Primary screen.)]”; type: protein assay
[5] = target: Peroxisome proliferator-activated receptor gamma/Nuclear receptor coactivator 2 (Homo sapiens, UniProt P37231); test: TR-FRET dose response biochemical High Throughput Screening assay for agonists of the steroid receptor coactivator 2 (SRC-2) recruitment by the peroxisome proliferator-activated receptor gamma (PPAR gamma): non-selective agonists. [Related pubchem assays: 1297, 1032 ]; type: functional
[6] = target: T1, Type-1 angiotensin II receptor (Homo sapiens, UniProt P30556); test: AT1 receptor agonists, dose response, selectivity assay for APJ receptor agonist project, cell-based, uHTS hits (AID 488865); type: functional;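 further: beta-arrestin recruitment to AT1 measured by enzyme fragment complementation luminescence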
T1 sequence (P30556 whole entry): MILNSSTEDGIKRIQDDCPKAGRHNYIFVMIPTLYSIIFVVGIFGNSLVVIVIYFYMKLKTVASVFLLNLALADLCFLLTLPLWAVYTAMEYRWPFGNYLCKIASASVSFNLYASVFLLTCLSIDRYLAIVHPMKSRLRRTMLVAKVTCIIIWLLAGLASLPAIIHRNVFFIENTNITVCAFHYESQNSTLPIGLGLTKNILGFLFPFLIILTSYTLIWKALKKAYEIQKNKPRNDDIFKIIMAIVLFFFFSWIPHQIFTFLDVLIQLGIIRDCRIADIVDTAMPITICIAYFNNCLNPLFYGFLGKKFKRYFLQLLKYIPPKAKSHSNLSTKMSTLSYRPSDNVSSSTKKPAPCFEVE

[7] = target: T2, Alkaline phosphatase, tissue-nonspecific isozyme (Homo sapiens, UniProt P05186); test: human TNAP enzyme inhibitors, SAR follow-up, biochemical, luminescent, dose response (AID 1056)
T2 sequence (P05186 whole entry): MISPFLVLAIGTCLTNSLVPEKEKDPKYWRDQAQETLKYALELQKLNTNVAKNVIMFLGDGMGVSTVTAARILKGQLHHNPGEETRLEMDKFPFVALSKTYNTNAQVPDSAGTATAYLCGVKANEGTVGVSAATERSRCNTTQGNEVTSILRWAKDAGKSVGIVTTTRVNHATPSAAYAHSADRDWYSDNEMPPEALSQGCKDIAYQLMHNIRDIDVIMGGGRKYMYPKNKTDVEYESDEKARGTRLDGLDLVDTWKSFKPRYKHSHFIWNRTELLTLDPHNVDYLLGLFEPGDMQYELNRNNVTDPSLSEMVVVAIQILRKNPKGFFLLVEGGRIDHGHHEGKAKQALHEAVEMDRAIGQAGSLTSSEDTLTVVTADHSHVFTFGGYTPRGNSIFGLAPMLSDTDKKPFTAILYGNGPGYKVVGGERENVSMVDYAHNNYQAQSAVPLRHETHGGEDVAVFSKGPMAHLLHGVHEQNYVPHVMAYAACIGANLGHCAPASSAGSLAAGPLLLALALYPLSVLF

[8] = target: Alkaline phosphatase, placental type (Homo sapiens, UniProt P05187); test: PLAP enzyme inhibitors, confirmation, biochemical, luminescence (AID 1512); type: functional
[9] = target: DNA dC->dU-editing enzyme APOBEC-3A (Homo sapiens, UniProt P31941); test: Dose Response confirmation of small molecule APOBEC3A DNA Deaminase Inhibitors via a fluorescence-based single-stranded DNA deaminase assay. [Related pubchem assays (depositor defined):AID493011, AID493024]; type: functional
[10] = target: DNA dC->dU-editing enzyme APOBEC-3G (Homo sapiens, UniProt Q9HC16); type: functional;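 further: Dose-response counterscreen measuring inhibition of APOBEC3G DNA deaminase activity, run while confirming APOBEC3A inhibitors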
[11] = target: T3, Carboxy-terminal domain RNA polymerase II polypeptide A small phosphatase 1 (Homo sapiens, UniProt Q9GZU7); test: inhibitors of CTDSP1, concentration-response testing, biochemical assay, absorbance-based, actives from ultra-high-throughput screening (AID 540297); type: functional
T3 sequence (Q9GZU7 whole entry): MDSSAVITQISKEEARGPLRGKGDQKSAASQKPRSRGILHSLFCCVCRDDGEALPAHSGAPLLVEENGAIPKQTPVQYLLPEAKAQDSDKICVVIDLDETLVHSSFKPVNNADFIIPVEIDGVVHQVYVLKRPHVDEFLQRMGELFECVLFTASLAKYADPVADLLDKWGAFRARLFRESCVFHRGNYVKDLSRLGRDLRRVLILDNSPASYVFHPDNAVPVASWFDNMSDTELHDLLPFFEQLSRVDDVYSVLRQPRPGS

[12] = target: T4, Kappa-type opioid receptor (Homo sapiens, UniProt P41145); type: functional
[13] = target: T4, Kappa-type opioid receptor; type: functional; remark: listed apart in the source
Streptococcus = test: Group A Streptococcus viability loss, dose response, counter-screen for streptokinase expression inhibitor project, luminescence, BacTiterGlo (AID 1915); type: functional, organism-based;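 further: potency for reduction of bacterial viability or growth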
[14] = target: T5, Delta-type opioid receptor (Homo sapiens, UniProt P41143); test: HTS Image-Based Screen for Agonists of the DOR Receptor. [Related pubchem assays (depositor defined):AID1777, AID1786, AID2133]; type: functional
Mu-type opioid receptor = Mu-type opioid receptor (Homo sapiens, UniProt P35372); test: HTS Image-Based Screen for Agonists of the MOR Receptor. [Related pubchem assays (depositor defined):AID1777, AID1785, AID1786, AID2133]; type: functional;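 further: imaging of beta-arrestin GFP recruitment into spots after receptor activation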
[15] = test system: Streptococcus sp. 'group A'; test: growth inhibition of control SK(-) GAS strain, dose response, counter-screen for streptokinase expression inhibitor project, luminescence, kanamycin, BacTiterGlo, confirmation (AID 1900); type: functional, organism-based
[16] = target: T5, Delta-type opioid receptor; test: HTS Image-Based Screen for Antagonists of the DOR Receptor. [Related pubchem assays (depositor defined):AID1777, AID1785, AID1786, AID2133]; type: functional
Streptokinase A = target: T6, Streptokinase A (Streptococcus pyogenes serotype M1, UniProt P10520); test: S. pyogenes streptokinase expression inhibitors, potency, dose response, plasminogen activation absorbance, OD405 (AID 1914); type: functional, Streptococcus pyogenes M1 GAS;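 further: secreted streptokinase activity via plasminogen activation per viability signal from cell pellet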
T6 sequence (P10520 whole entry): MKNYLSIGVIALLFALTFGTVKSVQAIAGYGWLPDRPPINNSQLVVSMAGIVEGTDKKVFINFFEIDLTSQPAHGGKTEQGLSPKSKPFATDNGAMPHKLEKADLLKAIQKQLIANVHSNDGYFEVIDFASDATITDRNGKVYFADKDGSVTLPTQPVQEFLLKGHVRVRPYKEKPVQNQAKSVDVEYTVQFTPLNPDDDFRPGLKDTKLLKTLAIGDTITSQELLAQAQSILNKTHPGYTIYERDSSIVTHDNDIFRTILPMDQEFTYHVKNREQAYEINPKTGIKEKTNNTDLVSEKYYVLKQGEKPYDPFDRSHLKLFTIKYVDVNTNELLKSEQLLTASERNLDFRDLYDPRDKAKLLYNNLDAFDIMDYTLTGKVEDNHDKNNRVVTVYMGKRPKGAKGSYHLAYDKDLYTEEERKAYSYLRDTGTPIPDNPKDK

Beta-galactosidase = Beta-galactosidase (Escherichia coli, UniProt Q8VNN2); type: functional
[17] = target: T7, Glutathione-S-transferase (Schistosoma japonicum, UniProt Q26513); test: biotin-GST/anti-GST TR-FRET signal inhibitors, dose response, artefact control for Vif-APOBEC3G degradation inhibitor project, biochemical (AID 1117362); type: functional
T7 sequence (Q26513 whole entry): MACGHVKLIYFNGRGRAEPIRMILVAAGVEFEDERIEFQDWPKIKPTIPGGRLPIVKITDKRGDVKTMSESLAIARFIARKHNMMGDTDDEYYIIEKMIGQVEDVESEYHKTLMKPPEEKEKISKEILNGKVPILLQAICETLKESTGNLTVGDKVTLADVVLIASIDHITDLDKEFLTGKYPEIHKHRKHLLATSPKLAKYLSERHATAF

Chain of DNA dC->dU-editing enzyme APOBEC-3G (Q9HC16 whole entry, the tested form may be a part): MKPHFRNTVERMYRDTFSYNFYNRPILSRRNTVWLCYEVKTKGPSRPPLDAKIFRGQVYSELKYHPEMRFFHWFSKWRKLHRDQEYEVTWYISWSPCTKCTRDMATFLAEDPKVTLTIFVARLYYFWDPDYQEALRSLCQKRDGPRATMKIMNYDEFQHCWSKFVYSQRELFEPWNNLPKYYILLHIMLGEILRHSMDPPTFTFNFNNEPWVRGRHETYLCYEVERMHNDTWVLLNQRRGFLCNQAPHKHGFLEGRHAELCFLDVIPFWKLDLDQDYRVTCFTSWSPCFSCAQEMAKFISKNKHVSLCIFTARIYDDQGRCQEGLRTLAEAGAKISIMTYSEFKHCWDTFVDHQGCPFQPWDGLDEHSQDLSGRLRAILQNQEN
T4 sequence (P41145 whole entry): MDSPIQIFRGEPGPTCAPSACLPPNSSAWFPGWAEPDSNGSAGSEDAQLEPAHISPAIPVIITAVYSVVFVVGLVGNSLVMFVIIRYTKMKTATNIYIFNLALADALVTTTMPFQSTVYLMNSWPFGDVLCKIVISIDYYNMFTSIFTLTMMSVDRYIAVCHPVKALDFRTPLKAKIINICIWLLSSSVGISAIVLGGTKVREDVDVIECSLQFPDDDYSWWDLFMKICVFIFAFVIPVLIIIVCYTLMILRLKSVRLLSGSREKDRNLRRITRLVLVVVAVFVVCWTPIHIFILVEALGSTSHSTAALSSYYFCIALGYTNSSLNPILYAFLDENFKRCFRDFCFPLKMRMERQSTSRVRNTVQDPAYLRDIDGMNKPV
Chain of DNA dC->dU-editing enzyme APOBEC-3A (P31941 whole entry): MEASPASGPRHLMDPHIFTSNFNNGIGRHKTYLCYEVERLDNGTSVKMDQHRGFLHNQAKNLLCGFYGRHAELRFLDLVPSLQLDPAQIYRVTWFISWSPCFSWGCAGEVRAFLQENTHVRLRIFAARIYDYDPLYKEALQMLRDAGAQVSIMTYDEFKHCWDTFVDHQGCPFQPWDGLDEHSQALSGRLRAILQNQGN
Chain of Peroxisome proliferator-activated receptor gamma/Nuclear receptor coactivator 1 (P37231 whole entry): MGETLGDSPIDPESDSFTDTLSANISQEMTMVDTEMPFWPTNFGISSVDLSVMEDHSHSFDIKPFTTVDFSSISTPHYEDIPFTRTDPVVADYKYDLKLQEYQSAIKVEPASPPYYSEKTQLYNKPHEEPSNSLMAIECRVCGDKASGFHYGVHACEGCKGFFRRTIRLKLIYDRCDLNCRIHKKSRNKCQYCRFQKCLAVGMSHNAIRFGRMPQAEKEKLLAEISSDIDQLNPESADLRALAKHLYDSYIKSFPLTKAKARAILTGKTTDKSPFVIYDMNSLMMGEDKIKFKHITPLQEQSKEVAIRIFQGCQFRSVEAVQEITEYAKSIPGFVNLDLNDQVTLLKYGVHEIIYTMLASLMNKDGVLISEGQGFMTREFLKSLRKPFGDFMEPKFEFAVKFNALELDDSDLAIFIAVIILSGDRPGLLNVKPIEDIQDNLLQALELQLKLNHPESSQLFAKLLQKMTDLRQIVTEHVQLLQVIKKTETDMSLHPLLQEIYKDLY
Chain of Peroxisome proliferator-activated receptor gamma/Nuclear receptor coactivator 1 (Q15788 whole entry, further chain): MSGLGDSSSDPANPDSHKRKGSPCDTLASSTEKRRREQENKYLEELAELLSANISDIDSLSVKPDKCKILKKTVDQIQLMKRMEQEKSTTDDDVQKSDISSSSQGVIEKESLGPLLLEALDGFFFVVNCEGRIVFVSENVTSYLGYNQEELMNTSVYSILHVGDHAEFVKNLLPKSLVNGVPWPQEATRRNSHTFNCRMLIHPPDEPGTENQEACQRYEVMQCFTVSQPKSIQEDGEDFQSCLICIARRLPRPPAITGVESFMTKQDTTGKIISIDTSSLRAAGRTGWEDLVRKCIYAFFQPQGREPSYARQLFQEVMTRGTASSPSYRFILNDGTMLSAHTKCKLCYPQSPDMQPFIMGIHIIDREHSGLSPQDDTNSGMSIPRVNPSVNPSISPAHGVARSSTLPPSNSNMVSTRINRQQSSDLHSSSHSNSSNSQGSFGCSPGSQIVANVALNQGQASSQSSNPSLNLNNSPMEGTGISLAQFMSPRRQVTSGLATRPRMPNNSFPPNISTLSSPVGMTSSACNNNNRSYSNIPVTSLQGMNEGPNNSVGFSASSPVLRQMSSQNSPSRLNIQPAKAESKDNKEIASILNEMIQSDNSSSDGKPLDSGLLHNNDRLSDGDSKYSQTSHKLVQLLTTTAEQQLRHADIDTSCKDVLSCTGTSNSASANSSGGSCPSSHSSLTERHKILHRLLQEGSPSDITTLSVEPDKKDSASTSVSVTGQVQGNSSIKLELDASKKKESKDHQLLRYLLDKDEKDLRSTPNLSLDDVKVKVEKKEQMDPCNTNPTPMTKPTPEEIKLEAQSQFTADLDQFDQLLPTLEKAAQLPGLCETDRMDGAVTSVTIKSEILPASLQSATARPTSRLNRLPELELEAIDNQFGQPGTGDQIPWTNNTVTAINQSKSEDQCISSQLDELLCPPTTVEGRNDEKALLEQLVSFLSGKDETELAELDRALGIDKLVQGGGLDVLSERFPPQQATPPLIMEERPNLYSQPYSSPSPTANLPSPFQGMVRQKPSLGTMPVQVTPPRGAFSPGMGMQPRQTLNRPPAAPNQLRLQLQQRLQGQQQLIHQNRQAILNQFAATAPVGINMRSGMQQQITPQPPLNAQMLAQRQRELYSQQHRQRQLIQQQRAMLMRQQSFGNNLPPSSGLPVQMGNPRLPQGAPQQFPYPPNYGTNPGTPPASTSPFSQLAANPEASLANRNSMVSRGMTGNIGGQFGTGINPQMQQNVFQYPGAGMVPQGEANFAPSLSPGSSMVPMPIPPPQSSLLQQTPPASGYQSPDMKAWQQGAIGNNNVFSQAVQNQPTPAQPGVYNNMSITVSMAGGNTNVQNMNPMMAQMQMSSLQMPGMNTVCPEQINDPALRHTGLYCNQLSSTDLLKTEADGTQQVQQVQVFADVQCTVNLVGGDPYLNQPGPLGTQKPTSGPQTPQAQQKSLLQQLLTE
Chain of Peroxisome proliferator-activated receptor gamma/Nuclear receptor coactivator 2 (P37231 whole entry, the tested form may be a part): as the sequence (P37231 whole entry) above
Chain of Peroxisome proliferator-activated receptor gamma/Nuclear receptor coactivator 2 (Q15596 whole entry, further chain, the tested form may be a part): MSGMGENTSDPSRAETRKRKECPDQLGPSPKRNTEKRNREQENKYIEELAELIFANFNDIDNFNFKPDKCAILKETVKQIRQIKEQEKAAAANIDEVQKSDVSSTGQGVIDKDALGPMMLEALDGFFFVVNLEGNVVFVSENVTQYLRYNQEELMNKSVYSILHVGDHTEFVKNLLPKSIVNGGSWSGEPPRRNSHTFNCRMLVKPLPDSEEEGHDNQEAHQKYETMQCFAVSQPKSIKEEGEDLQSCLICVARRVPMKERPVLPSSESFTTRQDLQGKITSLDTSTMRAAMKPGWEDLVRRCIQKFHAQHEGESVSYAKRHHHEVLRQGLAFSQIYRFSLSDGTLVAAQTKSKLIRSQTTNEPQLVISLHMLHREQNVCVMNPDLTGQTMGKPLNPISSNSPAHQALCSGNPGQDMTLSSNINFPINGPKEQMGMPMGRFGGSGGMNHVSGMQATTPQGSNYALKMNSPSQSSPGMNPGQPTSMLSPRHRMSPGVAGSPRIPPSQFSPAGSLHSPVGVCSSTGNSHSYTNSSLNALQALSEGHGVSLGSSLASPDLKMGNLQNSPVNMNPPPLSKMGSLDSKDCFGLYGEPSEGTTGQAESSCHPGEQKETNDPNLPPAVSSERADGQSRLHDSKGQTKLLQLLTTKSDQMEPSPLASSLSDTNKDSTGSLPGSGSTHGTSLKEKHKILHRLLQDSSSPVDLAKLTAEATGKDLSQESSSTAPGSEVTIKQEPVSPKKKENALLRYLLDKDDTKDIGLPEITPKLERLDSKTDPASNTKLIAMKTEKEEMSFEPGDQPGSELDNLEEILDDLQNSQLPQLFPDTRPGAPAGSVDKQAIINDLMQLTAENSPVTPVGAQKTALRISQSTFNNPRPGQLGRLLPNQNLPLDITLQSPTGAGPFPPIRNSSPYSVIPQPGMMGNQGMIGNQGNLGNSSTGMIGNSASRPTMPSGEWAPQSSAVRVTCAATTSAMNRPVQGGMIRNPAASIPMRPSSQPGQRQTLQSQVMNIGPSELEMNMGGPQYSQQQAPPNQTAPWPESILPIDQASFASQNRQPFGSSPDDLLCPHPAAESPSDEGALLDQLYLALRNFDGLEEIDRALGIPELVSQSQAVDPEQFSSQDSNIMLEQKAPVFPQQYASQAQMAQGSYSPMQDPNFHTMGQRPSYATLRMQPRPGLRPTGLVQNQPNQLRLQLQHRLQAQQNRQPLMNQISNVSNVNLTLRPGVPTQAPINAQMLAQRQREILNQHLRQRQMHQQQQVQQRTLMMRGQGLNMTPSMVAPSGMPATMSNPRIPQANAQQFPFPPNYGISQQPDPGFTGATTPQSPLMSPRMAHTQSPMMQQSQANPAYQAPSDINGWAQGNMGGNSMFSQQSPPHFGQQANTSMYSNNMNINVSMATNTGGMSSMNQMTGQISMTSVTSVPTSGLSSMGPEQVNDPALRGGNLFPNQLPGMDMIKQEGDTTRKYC

With `CCn1c(=S)[nH]c2scc(-c3cccs3)c2c1=O` the EC50 [1] was > 79.4 µM (not active), the EC50 [2] was 1.23 µM (active) and the EC50 [3] was > 160 µM (inactive). For the same molecule, the EC50 [4] was 8.82 µM (active) and the EC50 [5] was 11.1 µM (not active).
For `CCOc1cc2[nH]c(=S)n(CCN3CCCCC3CC)c(=O)c2cc1OCC` (configuration not stated), the EC50 [6] was > 100 µM (inactive).
With `CCn1c(SCC(=O)c2ccc(OC)cc2)nnc1-c1ccccc1` the IC50 [7] was > 100 µM (inactive) and the IC50 [8] was > 100 µM (inactive).
In the case of `Cc1cccc2sc(N(CCCN(C)C)C(=O)c3ccc(S(=O)(=O)N4CCc5ccccc5C4)cc3)nc12`, the EC50 [6] is reported as > 100 µM (inactive).
For `COc1cc(/C=C/c2cccc[n+]2C)ccc1OCC(=O)Nc1cccc(Cl)c1`, the IC50 [9] was 2.83 µM (active), the IC50 [10] was 2.95 µM (active) and the IC50 [11] was 18.9 µM (active).
With `Cc1ccc(NC(=O)C2CCCN2C(=O)c2cccs2)c(C)c1` (configuration not stated) the IC50 [9] was 3.76 µM (active) and the IC50 [10] was 6.6 µM (active).
In the case of `CCCc1nc2oc3c(Cl)ncnc3c2c2c1CCCC2`, the IC50 [12] is reported as over 32 µM, the IC50 [13] is reported as 4.64 µM (active) and the EC50 (Streptococcus) is reported as > 150 µM (not active). For the same molecule, the EC50 [14] was > 32 µM (inactive), the EC50 (Mu-type opioid receptor) was > 32 µM (inactive) and the EC50 [15] was > 150 µM (not active). The IC50 [16] was > 32 µM (inactive), the EC50 (Streptokinase A) was > 150 µM (not active) and the EC50 (Beta-galactosidase) was > 31.5 µM (inactive).
With `Cc1ccc(C)n1-c1ccc(-c2nnc3n2CCCCC3)s1` the EC50 [1] was > 79.4 µM (not active), the EC50 [4] was > 79.4 µM (inactive) and the EC50 [5] was 38.7 µM (not active). The IC50 [17] was 86.7 µM (active).
